Reference: ChEMBL document CHEMBL3797151, “Design, synthesis, assessment, and molecular docking of novel pyrrolopyrimidine (7-deazapurine) derivatives as non-nucleoside hepatitis C virus NS5B polymerase inhibitors” (Bioorg Med Chem, 2016)

Tests used:
[1] = Cytotoxicity against human Huh7.5 cells infected with HCV genotype 4a assessed as morphological changes after 72 hrs by inverted light microscopy; assay type: cell-based, Huh-7
[2] = Cytotoxicity against human Huh7.5 cells infected with HCV genotype 4a assessed as cell viability after 72 hrs by trypan blue dye-based phase contrast microscopy; details: Huh-7, 72 h
[3] = system: Hepatitis C virus; assay: Antiviral activity against HCV genotype 4a ED-43/SG-feo (VYG) replicons infected in human Huh7.5 cells assessed as inhibition of viral replication after 72 hrs by immunofluorescence assay; assay type: functional, organism-based, Hepacivirus hominis; details: Huh-7, 72 h
[4] = system: Hepatitis C virus; assay: Antiviral activity against HCV genotype 4a ED-43/SG-feo (VYG) replicons infected in human Huh7.5 cells assessed as inhibition of viral replication at non-toxic dose after 72 hrs by immunofluorescence assay; assay type: functional, Hepacivirus hominis, Huh-7

| IC50 [3] | SMILES | CC50 at 72 h [1] | CC50 [2] | inhibition (INH) [4] |
| --- | --- | --- | --- | --- |
| > 150 µM | CC(=O)Nc1c(C#N)c(-c2ccccc2)c(-c2ccccc2)n1C1CCCCC1 | 183 µM | 183 µM |  |
| > 150 µM | CC(=O)Nc1c(C#N)c(-c2ccccc2)c(-c2ccccc2)n1-c1cccc(Cl)c1 | 146 µM | 146 µM |  |
| > 150 µM | Cc1cc(C)n(-c2ncnc3c2c(-c2ccccc2)c(-c2ccccc2)n3-c2cccc(Cl)c2)n1 | 147 µM | 147 µM |  |
| > 150 µM | Cc1nc2c(c(-c3ccccc3)c(-c3ccccc3)n2-c2cccc(Cl)c2)c(=O)[nH]1 | 97 µM | 97 µM |  |
| > 150 µM | N#Cc1c(-c2ccccc2)c(-c2ccccc2)n(-c2cccc(Cl)c2)c1N | 189 µM | 189 µM |  |
| 92.4 µM | Cc1ccccc1Nc1ncnc2c1c(-c1ccccc1)c(-c1ccccc1)n2-c1cccc(Cl)c1 | 144 µM | 144 µM | 76.7% |
| 108 µM | Clc1ccc(-n2c(-c3ccccc3)c(-c3ccccc3)c3c(Cl)ncnc32)cc1 | 120 µM | 120 µM | 73.3% |
| 102 µM | Clc1ccc(/C=N/Nc2ncnc3c2c(-c2ccccc2)c(-c2ccccc2)n3-c2cccc(Cl)c2)cc1 | 131 µM | 131 µM | 63.3% |
| > 150 µM | N#Cc1c(-c2ccccc2)c(-c2ccccc2)n(-c2ccc(Cl)cc2)c1N | 189 µM | 189 µM |  |
| > 150 µM | Clc1cccc(-n2c(-c3ccccc3)c(-c3ccccc3)c3c(Cl)ncnc32)c1 | 168 µM | 168 µM | 0% |
| > 150 µM | Cc1cccc(Nc2ncnc3c2c(-c2ccccc2)c(-c2ccccc2)n3-c2ccc(Cl)cc2)c1 | 1020 µM | 1020 µM |  |
| > 150 µM | Cc1nc2c(c(-c3ccccc3)c(-c3ccccc3)n2-c2ccc(Cl)cc2)c(=O)[nH]1 | 97 µM | 97 µM |  |
| > 150 µM | Clc1cccc(-n2c(-c3ccccc3)c(-c3ccccc3)c3c(N/N=C/c4ccccc4)ncnc32)c1 | 140 µM | 140 µM |  |
| > 150 µM | Cc1ccc(Nc2ncnc3c2c(-c2ccccc2)c(-c2ccccc2)n3-c2ccc(Cl)cc2)cc1 | 123 µM | 123 µM |  |
| > 150 µM | Clc1ccc(-n2c(-c3ccccc3)c(-c3ccccc3)c3c(Nc4ccccc4)ncnc32)cc1 | 127 µM | 127 µM |  |
| > 150 µM | O=c1[nH]nc2c3c(-c4ccccc4)c(-c4ccccc4)n(-c4ccc(Cl)cc4)c3ncn12 | 160 µM | 160 µM |  |
| > 150 µM | S=c1[nH]nc2c3c(-c4ccccc4)c(-c4ccccc4)n(C4CCCCC4)c3ncn12 | 188 µM | 188 µM |  |
| > 150 µM | O=c1[nH]cnc2c1c(-c1ccccc1)c(-c1ccccc1)n2-c1cccc(Cl)c1 | 151 µM | 151 µM |  |
| > 150 µM | CC(=O)Nc1c(C#N)c(-c2ccccc2)c(-c2ccccc2)n1-c1ccc(Cl)cc1 | 146 µM | 146 µM |  |

| IC50 [3] | SMILES | CC50 at 72 h [1] | CC50 [2] | inhibition (INH) [4] |
| --- | --- | --- | --- | --- |
| > 150 µM | S=c1[nH]cnc2c1c(-c1ccccc1)c(-c1ccccc1)n2C1CCCCC1 | 130 µM | 130 µM |  |
| > 150 µM | NNc1ncnc2c1c(-c1ccccc1)c(-c1ccccc1)n2C1CCCCC1 | 157 µM | 157 µM |  |
| > 150 µM | Clc1cccc(-n2c(-c3ccccc3)c(-c3ccccc3)c3c2ncn2cnnc32)c1 | 190 µM | 190 µM |  |
| > 150 µM | Cc1cccc(Nc2ncnc3c2c(-c2ccccc2)c(-c2ccccc2)n3C2CCCCC2)c1 | 131 µM | 131 µM |  |
| > 150 µM | Cc1cc(C)n(-c2ncnc3c2c(-c2ccccc2)c(-c2ccccc2)n3C2CCCCC2)n1 | 156 µM | 156 µM |  |
| > 150 µM | NNc1ncnc2c1c(-c1ccccc1)c(-c1ccccc1)n2-c1ccc(Cl)cc1 | 146 µM | 146 µM | 0% |
| > 150 µM | COc1ccc(/C=N/Nc2ncnc3c2c(-c2ccccc2)c(-c2ccccc2)n3-c2cccc(Cl)c2)cc1 | 151 µM | 151 µM |  |
| > 150 µM | Clc1cccc(-n2c(-c3ccccc3)c(-c3ccccc3)c3c(Nc4ccccc4)ncnc32)c1 | 148 µM | 148 µM |  |
| > 150 µM | Cc1nnc2c3c(-c4ccccc4)c(-c4ccccc4)n(-c4cccc(Cl)c4)c3ncn12 | 161 µM | 161 µM |  |
| > 150 µM | C(=N\Nc1ncnc2c1c(-c1ccccc1)c(-c1ccccc1)n2C1CCCCC1)/c1ccccc1 | 148 µM | 148 µM |  |
| > 150 µM | c1ccc(Nc2ncnc3c2c(-c2ccccc2)c(-c2ccccc2)n3C2CCCCC2)cc1 | 158 µM | 158 µM |  |
| > 150 µM | Clc1ccc(/C=N/Nc2ncnc3c2c(-c2ccccc2)c(-c2ccccc2)n3C2CCCCC2)cc1 | 158 µM | 158 µM |  |
| > 150 µM | N#Cc1c(-c2ccccc2)c(-c2ccccc2)n(C2CCCCC2)c1N | 176 µM | 176 µM |  |
| > 150 µM | Cc1nnc2c3c(-c4ccccc4)c(-c4ccccc4)n(C4CCCCC4)c3ncn12 | 172 µM | 172 µM |  |
| > 150 µM | COc1ccc(/C=N/Nc2ncnc3c2c(-c2ccccc2)c(-c2ccccc2)n3-c2ccc(Cl)cc2)cc1 | 113 µM | 113 µM |  |
| > 150 µM | Cc1ccccc1Nc1ncnc2c1c(-c1ccccc1)c(-c1ccccc1)n2C1CCCCC1 | 153 µM | 153 µM |  |
| > 150 µM | Clc1ccc(-n2c(-c3ccccc3)c(-c3ccccc3)c3c2ncn2cnnc32)cc1 | 190 µM | 190 µM |  |
| > 150 µM | S=c1[nH]cnc2c1c(-c1ccccc1)c(-c1ccccc1)n2-c1ccc(Cl)cc1 | 121 µM | 121 µM |  |
| > 150 µM | Cc1cc(C)n(-c2ncnc3c2c(-c2ccccc2)c(-c2ccccc2)n3-c2ccc(Cl)cc2)n1 | 147 µM | 147 µM |  |

| IC50 [3] | SMILES | CC50 at 72 h [1] | CC50 [2] | inhibition (INH) [4] |
| --- | --- | --- | --- | --- |
| > 150 µM | O=c1[nH]nc2c3c(-c4ccccc4)c(-c4ccccc4)n(C4CCCCC4)c3ncn12 | 171 µM | 171 µM |  |
| > 150 µM | Cc1nc2c(c(-c3ccccc3)c(-c3ccccc3)n2C2CCCCC2)c(=O)[nH]1 | 130 µM | 130 µM |  |
| > 150 µM | Cc1cccc(Nc2ncnc3c2c(-c2ccccc2)c(-c2ccccc2)n3-c2cccc(Cl)c2)c1 | 103 µM | 103 µM |  |
| > 150 µM | O=c1[nH]nc2c3c(-c4ccccc4)c(-c4ccccc4)n(-c4cccc(Cl)c4)c3ncn12 | 183 µM | 183 µM |  |
| > 150 µM | S=c1[nH]cnc2c1c(-c1ccccc1)c(-c1ccccc1)n2-c1cccc(Cl)c1 | 145 µM | 145 µM |  |
| > 150 µM | c1ccc(-c2c(-c3ccccc3)n(C3CCCCC3)c3ncn4cnnc4c23)cc1 | 178 µM | 178 µM |  |
| > 150 µM | Cc1nnc2c3c(-c4ccccc4)c(-c4ccccc4)n(-c4ccc(Cl)cc4)c3ncn12 | 138 µM | 138 µM |  |
| > 150 µM | S=c1[nH]nc2c3c(-c4ccccc4)c(-c4ccccc4)n(-c4cccc(Cl)c4)c3ncn12 | 184 µM | 184 µM |  |
| > 150 µM | COc1ccc(/C=N/Nc2ncnc3c2c(-c2ccccc2)c(-c2ccccc2)n3C2CCCCC2)cc1 | 140 µM | 140 µM |  |
| > 150 µM | Clc1ccc(-n2c(-c3ccccc3)c(-c3ccccc3)c3c(N/N=C/c4ccccc4)ncnc32)cc1 | 140 µM | 140 µM |  |
| 82.1 µM | Cc1ccccc1Nc1ncnc2c1c(-c1ccccc1)c(-c1ccccc1)n2-c1ccc(Cl)cc1 | 144 µM | 144 µM | 90% |
| > 150 µM | S=c1[nH]nc2c3c(-c4ccccc4)c(-c4ccccc4)n(-c4ccc(Cl)cc4)c3ncn12 | 138 µM | 138 µM |  |
| > 150 µM | O=c1[nH]cnc2c1c(-c1ccccc1)c(-c1ccccc1)n2C1CCCCC1 | 190 µM | 190 µM |  |
| > 150 µM | O=c1[nH]cnc2c1c(-c1ccccc1)c(-c1ccccc1)n2-c1ccc(Cl)cc1 | 151 µM | 151 µM |  |
| > 150 µM | NNc1ncnc2c1c(-c1ccccc1)c(-c1ccccc1)n2-c1cccc(Cl)c1 | 146 µM | 146 µM | 0% |
| 93.6 µM | Clc1ccc(/C=N/Nc2ncnc3c2c(-c2ccccc2)c(-c2ccccc2)n3-c2ccc(Cl)cc2)cc1 | 131 µM | 131 µM | 70% |
| > 150 µM | Clc1ncnc2c1c(-c1ccccc1)c(-c1ccccc1)n2C1CCCCC1 | 155 µM | 155 µM |  |
| > 150 µM | Cc1ccc(Nc2ncnc3c2c(-c2ccccc2)c(-c2ccccc2)n3-c2cccc(Cl)c2)cc1 | 123 µM | 123 µM |  |
| > 150 µM | Cc1ccc(Nc2ncnc3c2c(-c2ccccc2)c(-c2ccccc2)n3C2CCCCC2)cc1 | 153 µM | 153 µM |  |
